The subject of series [1] is leukotriene E (LTE) induced skin wheal formation in rat skin. As to the kind of experiment: LTE-induced skin wheal formation in rat. It counts as in vivo. The note with it: rat skin wheal, read-out: ID50 (the source's name). The procedure:
(a) Methodology for LTE-induced Skin Wheal Formation in Rat. The ability of a drug to inhibit leukotriene E (LTE) induced skin wheal formation in rat skin is measured. In this model system a dose of LTE which gives a maximal wheal response, is injected (in 0.05 ml of saline) intradermally into anesthetized rats which have been pretreated for 30 minutes with 50 mg/kg of pyrilamine maleate and 4 mg/kg of methyl […] maleate (both administered intraperitoneally). The animal is then immediately treated with test drug (at 10 mg/kg, i.v.) followed by an intravenous injection of Evans blue (0.5%) into the tail vein of the animal. Thirty minutes later the animals are sacrificed and the increase in capillary permeability induced by LTE is reflected by the migration of dye into the injection point in the skin (the response being quantitated by the size, in mm, of the dye spot in the skin). The average response in 5 animals (4 intradermal injections of LTE per animal) treated with the test compound is compared with the response elicited in a similar group of animals which were not treated with the drug. For oral studies, the test animals are pretreated two hours prior to intradermal injection of LTE.

A short description of series [2]: LD50 in mice (acute toxicity). To be noted: mouse, in vivo.
For series [3], the system named is leukotriene E induced bronchoconstriction. Nature of the series: LTE-induced bronchoconstriction in guinea pigs, in vivo (i.v. / oral). The note with it: Cavia porcellus, read-out: ID50 (the source's name). The arrangement: species or system guinea pig (Hartley strain).
The test system of series [4] is acetylcholine-induced constriction in guinea pig ilea. Nature of the series: Antagonism of acetylcholine-induced constriction in guinea pig ilea. The note with it: 5.0×10^-7 M acetylcholine; read-out: IC50 antagonism of acetylcholine-induced constrictions. The procedure:
(e) Antagonism of Acetylcholine-induced Constriction in Guinea Pig Ilea
Anticholinergic activity was determined on a segment of guinea pig ileum that was suspended in a 37° C. bath of oxygenated Tyrodes solution. At 4 minute intervals, the ileum was challenged with 5.0×10^-7 M acetylcholine for sufficient time to produce a peak contraction and then washed with fresh Tyrodes solution. After the tissue response to acetylcholine had stablized, the ileum was pretreated with the standard anticholinergic, atropine sulfate, for 1 minute prior to rechallenge with acetylcholine, the contraction recorded and the tissue washed with Tyrodes solution. […] The IC50 for atropine was 1×10^-8 M. THe IC50 's for test drugs were determined by this same procedure.

Series [5] concerns histamine-induced constriction in guinea pig ilea. As to the kind of experiment: Antagonism of histamine-induced constriction in guinea pig ilea. To be noted: 1×10^-7 M histamine. The procedure:
(f) Antagonism of Histamine-induced Constriction in Guinea Pig Ilea
Antihistaminic activity was determined on a segment of guinea pig ileum that was suspended in a 37° C. bath of oxygenated Tyrodes solution. At 4 minute intervals, the ileum was challenged with 1×10^-7 M histamine for sufficient time to produce a peak contraction and then washed with fresh Tyrodes solution. After the tissue response to histamine had stabilized, the ileum was pretreated with the standard antihistaminic compound, pyrilamine maleate, for 1 minute prior to rechallenge with histamine, the contraction recorded, and the tissue washed with Tyrodes solution. […] By the IC50 for pyrilamine maleate in the test system was 1×10^-8 M. IC50 's for test drugs were determined by this same procedure.

Series [6] relates to SRS-A induced contraction of guinea pig ileum. Nature of the series: In vitro SRS-A antagonism. The note with it: 30 seconds pretreatment. The procedure: (j) In vitro SRS-A Antagonism
SRS-A was determined by bioassay on the guinea pig ileum using a modification of the method described by Orange et al., Adv. Immunol., 1969, 10, 105. A 1.5 cm segment of the ileum, obtained from male guinea pigs (175-200 g), was suspended in an organ bath containing Tyrodes solution with 10^-6 M atropine sulfate and 10^-6 M pyrilamine maleate. The bath was maintained at 37° C. and gassed with a mixture of 95 percent oxygen and 5 percent carbon dioxide. The ileum was attached to a strain gauge transducer and isotonic contractions recorded by a strip chart recorder. A resting tension of 0.5 g was applied and the tissue allowed to equilibrate for 1 hour.
The SRS-A used in these studies was obtained by challenging a large quantity of chopped lung fragments from actively sensitized guinea pigs with egg albumin in vitro. The animals were sensitized to egg albumin by an intraperitoneal injection of the antigen (1 ml of 10 mg/ml) in saline 28 to 45 days prior to challenge. The in vitro challenge was carried out by first preincubating the lung tissue (40 mg/ml) at 37° C. in Tyrodes solution for 5 minutes, adding the egg albumin ([…] final concentration) to the fragments and after a 10 minute challenge, separating the media containing the SRS-A from the lung tissue by filtration on Whatman #1 filter paper. The concentration of SRS-A in the filtrate was calibrated by comparison of the contraction amplitude elicited in the bioassay system by a given volume of the supernatant with contractions obtained by varying concentrations of histamine. One unit of SRS-A is equivalent to that quantity which will give the same contraction as 5 ng of histamine. After standarization, the SRS-A was stored in small aliquots at -80° C. for further use. […] SRS-A antagonism was determined by pretreating the ileum with drug for 30 seconds prior to the addition of a concentration of SRS-A which have a submaximal response, determination of the amplitude of contraction elicited in the presence of drug and then washing the ileum with Tyrodes. […]

Setting [7] is: po, orally (2 hours pretreatment).

Like-named read-outs stand apart in the source and are kept apart here.

As for `CC(C)c1ccc2nc3ccc(C(=O)NCCCCn4ccnc4)cn3c(=O)c2c1` [Compound A, N-[4-(1H-imidazol-1-yl)butyl]-2-(1-methylethyl)-11-oxo-11H-pyrido[2,1-b]quinazoline-8-carboxamide], the ED50 amounted to 30 mg/kg in series [1] (iv), 46 mg/kg in series [1] (po), 0.9 mg/kg in series [3] (iv) and 47 mg/kg in series [3] (setting [7]). In addition, the LD50 was found to be 22 mg/kg in series [2] (ip, intraperitoneally) and 775 mg/kg in series [2] (po, orally). Besides, the IC50 in series [4] amounted to 5000 nM; in series [5] it was 1000 nM; in series [6], 1000 nM.

For `CC(C)c1ccc2nc3ccc(C(=O)NCCCCc4cccnc4)cn3c(=O)c2c1` [Compound B, 2-(1-methylethyl)-N-[4-(3-pyridyl)butyl]-11-oxo-11H-pyrido[2,1-b]quinazoline-8-carboxamide], the ED50 in series [1] (iv) stood at 15 mg/kg; in series [1] (po), 70 mg/kg; in series [3] (iv) it was 0.3 mg/kg; in series [3] (setting [7]), 60 mg/kg. Also, the LD50 in series [2] (po, orally) was > 1000 mg/kg. Also, the IC50 in series [4] was determined as 7000 nM; in series [5], 2000 nM; in series [6], 1000 nM.

As a reminder, the LD50 is the dose expected to kill half of the subjects tested. The term IC50 denotes the concentration needed to halve the response being measured.

For the origin of these results see US4551460A, “Pyrido[2,1-b]quinazoline derivatives useful as agents for treatment of allergic conditions and vascular disorders involving thrombosis” (priority 1983, dated 1985).
